Reference: patent US10806785B2, “Immunomodulator compounds and methods of use” (Incyte Corporation, priority 2016, dated 2020)

Target: PD-1/PD-L1 (Homo sapiens (Human), UniProt Q9NZQ7)
Assay: PD-1/PD-L1 binding assay (HTRF)
Procedure: The assays were conducted in a standard black 384-well polystyrene plate with a final volume of 20 μL. Inhibitors were first serially diluted in DMSO and then added to the plate wells before the addition of other reaction components. The final concentration of DMSO in the assay was 1%. The assays were carried out at 25° C. in the PBS buffer (pH 7.4) with 0.05% Tween-20 and 0.1% BSA. Recombinant human PD-L1 protein (19-238) with a His-tag at the C-terminus was purchased from AcroBiosystems (PD1-H5229). Recombinant human PD-1 protein (25-167) with Fc tag at the C-terminus was also purchased from AcroBiosystems (PD1-H5257). PD-L1 and PD-1 proteins were diluted in the assay buffer and 10 μL was added to the plate well. Plates were centrifuged and proteins were preincubated with inhibitors for 40 minutes. The incubation was followed by the addition of 10 μL of HTRF detection buffer supplemented with Europium cryptate-labeled anti-human IgG (PerkinElmer-AD0212) specific for Fc and anti-His antibody conjugated to SureLight®-Allophycocyanin (APC, PerkinElmer-AD0059H). After centrifugation, the plate was incubated at 25° C. for 60 min. before reading on a PHERAstar FS plate reader (665 nm/620 nm ratio). Final concentrations in the assay were […], 10 nM PD-L1, 1 nM europium anti-human IgG and 20 nM anti-His-Allophycocyanin. IC50 determination was performed by fitting the curve of percent control activity versus the log of the inhibitor concentration using the GraphPad Prism 5.0 software.

PD-1/PD-L1, sequence (Q9NZQ7 19-238): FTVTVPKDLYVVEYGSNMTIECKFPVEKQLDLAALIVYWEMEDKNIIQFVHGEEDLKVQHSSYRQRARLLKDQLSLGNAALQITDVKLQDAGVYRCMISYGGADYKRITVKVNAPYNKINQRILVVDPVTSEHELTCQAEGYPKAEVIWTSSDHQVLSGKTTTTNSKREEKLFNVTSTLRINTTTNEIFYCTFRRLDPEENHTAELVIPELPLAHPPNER

| IC50 [nM] | Compound |
| --- | --- |
| ≤ 10 | Cc1c(NC(=O)c2nc3c(n2C)CCN(C[C@@H](C)O)C3)cccc1-c1cccc(NC(=O)c2nc3c(n2C)CCN(C2CCC(C)(C(=O)O)CC2)C3)c1Cl (mixture of isomers) [Compound 141, (R)-4-(2-((2-chloro-3′-(5-(2-hydroxypropyl)-1-methyl-4,5,6,7-tetrahydro-1H-imidazo[4,5-c]pyridine-2-carboxamido)-2′-methyl-[1,1′-biphenyl]-3-yl)carbamoyl)-1-methyl-1,4,6,7-tetrahydro-5H-imidazo[4,5-c]pyridin-5-yl)-1-methylcyclohcxane-1-carboxylic acid] |
| ≤ 10 | Cc1c(NC(=O)c2nc3c(n2C)CCN(C2CCOCC2)C3)cccc1-c1cccc(NC(=O)c2nc3c(n2C)CCN(C2CCC(C)(C(=O)O)CC2)C3)c1Cl (single isomer, unassigned) [142 (compound 142-1), 4-(2-((2-chloro-2′-methyl-3′-(1-methyl-5-(tetrahydro-2H-pyran-4-yl)-4,5,6,7-tetrahydro-1H-imidazo[4,5-c]pyridine-2-carboxamido)-[1,1′-biphenyl]-3-yl)carbamoyl)-1-methyl-1,4,6,7-tetrahydro-5H-imidazo[4,5-c]pyridin-5-yl)-1-methylcyclohexane-1-carboxylic acid] |
| ≤ 10 | Cc1c(NC(=O)c2nc3c(n2C)CCN(C[C@H](C)O)C3)cccc1-c1cccc(NC(=O)c2nc3c(n2C)CCN(C2CCC(C)(C(=O)O)CC2)C3)c1Cl (single isomer, unassigned) [143 (compound 143-1)] |
| ≤ 10 | Cn1c(C(=O)Nc2cccc(-c3cccc(NC(=O)c4nc5c(n4C)CCN(C4CCC(O)CC4)C5)c3Cl)c2Cl)nc2c1CCN(CC13CCC(C(=O)O)(CC1)C3)C2 (single isomer, unassigned) [183 (compound 183-1), 4-((2-(2,2′-dichloro-3′-(5-(4-hydroxycyclohexyl)-1-methyl-4,5,6,7-tetrahydro-1H-imidazo[4,5-c]pyridine-2-carboxamido)biphenyl-3-ylcarbamoyl)-1-methyl-6,7-dihydro-1H-imidazo[4,5-c]pyridin-5(4H)-yl)methyl)bicyclo[2.2.1]heptane-1-carboxylic acid] |
| ≤ 10 | CN1CCc2c(nc(C(=O)Nc3cccc(-c4cccc(NC(=O)c5nc6c(n5C)CCN(CC5CCC(C)(C(=O)O)CC5)C6)c4Cl)c3Cl)n2C)C1 (single isomer, unassigned) [Compound 82-1, 4-((2-((2,2′-dichloro-3′-(1,5-dimethyl-4,5,6,7-tetrahydro-1H-imidazo[4,5-c]pyridine-2-carboxamido)-[1,1′-biphenyl]-3-yl)carbamoyl)-1-methyl-1,4,6,7-tetrahydro-5H-imidazo[4,5-c]pyridin-5-yl)methyl)-1-methylcyclohexane-1-carboxylic acid] |
| ≤ 10 | Cc1c(NC(=O)c2nc3c(n2C)CCN(C)C3)cccc1-c1cccc(NC(=O)c2nc3c(n2C)CCN(CC2CCC(C)(C(=O)O)CC2)C3)c1Cl (single isomer, unassigned) [Compound 120-1, 4-((2-((2-chloro-3′-(1,5-dimethyl-4,5,6,7-tetrahydro-1H-imidazo[4,5-c]pyridine-2-carboxamido)-2′-methyl-[1,1′-biphenyl]-3-yl)carbamoyl)-1-methyl-1,4,6,7-tetrahydro-5H-imidazo[4,5-c]pyridin-5-yl)methyl)-1-methylcyclohexane-1-carboxylic acid] |
| ≤ 10 | Cc1c(NC(=O)c2nc3c(n2C)CCN(C2CCC(O)CC2)C3)cccc1-c1cccc(NC(=O)c2nc3c(n2C)CCN(CC[C@H]2CC[C@H](C(=O)O)CC2)C3)c1Cl (single isomer, unassigned) [Compound 134-1, Trans-4-(2-(2-(2-chloro-3′-(5-(4-hydroxycyclohexyl)-1-methyl-4,5,6,7-tetrahydro-1H-imidazo[4,5-c]pyridine-2-carboxamido)-2′-methylbiphenyl-3-ylcarbamoyl)-1-methyl-6,7-dihydro-1H-imidazo[4,5-c]pyridin-5(4H)-yl)ethyl)cyclohexane-1-carboxylic Acid] |
| ≤ 10 | Cc1c(NC(=O)c2nc3c(n2C)CCN(C2CCC(O)CC2)C3)cccc1-c1cccc(NC(=O)c2nc3c(n2C)CCN(C[C@H]2CC[C@@H](C(=O)O)CC2)C3)c1Cl (single isomer, unassigned) [Compound 138-1, cis-4-((2-((2-chloro-3′-(5-(4-hydroxycyclohexyl)-1-methyl-4,5,6,7-tetrahydro-1H-imidazo[4,5-c]pyridine-2-carboxamido)-2′-methyl-[1,1′-biphenyl]-3-yl)carbamoyl)-1-methyl-1,4,6,7-tetrahydro-5H-imidazo[4,5-c]pyridin-5-yl)methyl)cyclohexane-1-carboxylic acid] |
| ≤ 10 | Cn1c(C(=O)Nc2cccc(-c3cccc(NC(=O)c4nc5c(n4C)CCN(C4CCC(O)CC4)C5)c3Cl)c2Cl)nc2c1CCN(C[C@H]1CC[C@H](C(=O)O)CC1)C2 (stereo partly drawn) [144 (compound 144-1), trans-4-((2-((2,2′-dichloro-3′-(5-(4-hydroxycyclohexyl)-1-methyl-4,5,6,7-tetrahydro-1H-imidazo[4,5-c]pyridine-2-carboxamido)-[1,1′-biphenyl]-3-yl)carbamoyl)-1-methyl-1,4,6,7-tetrahydro-5H-imidazo[4,5-c]pyridin-5-yl)methyl)cyclohexane-1-carboxylic acid] |
| ≤ 10 | Cn1c(C(=O)Nc2cccc(-c3cccc(NC(=O)c4nc5c(n4C)CCN(C4CCC(O)CC4)C5)c3Cl)c2Cl)nc2c1CCN(C[C@H]1CC[C@@H](C(=O)O)CC1)C2 (stereo partly drawn) [145 (compound 145-1), cis-4-((2-((2,2′-dichloro-3′-(5-(4-hydroxycyclohexyl)-1-methyl-4,5,6,7-tetrahydro-1H-imidazo[4,5-c]pyridine-2-carboxamido)-[1,1′-biphenyl]-3-yl)carbamoyl)-1-methyl-1,4,6,7-tetrahydro-5H-imidazo[4,5-c]pyridin-5-yl)methyl)cyclohexane-1-carboxylic acid] |
| ≤ 10 | Cn1c(C(=O)Nc2cccc(-c3cccc(NC(=O)c4nc5c(n4C)CCN(C4CCC(O)CC4)C5)c3Cl)c2Cl)nc2c1CCN(CC[C@H]1CC[C@H](C(=O)O)CC1)C2 (stereo partly drawn) [146 (compound 146-1), trans-4-(2-(2-((2,2′-dichloro-3′-(5-(4-hydroxycyclohexyl)-1-methyl-4,5,6,7-tetrahydro-1H-imidazo[4,5-c]pyridine-2-carboxamido)-[1,1′-biphenyl]-3-yl)carbamoyl)-1-methyl-1,4,6,7-tetrahydro-5H-imidazo[4,5-c]pyridin-5-yl)ethyl)cyclohexane-1-carboxylic acid] |
| ≤ 10 | Cc1c(NC(=O)c2nc3c(n2C)CCN(C2C4CC5CC2CC(C(=O)O)(C5)C4)C3)cccc1-c1cccc(NC(=O)c2nc3c(n2C)CCN(C)C3)c1Cl (stereo not shown) [175 (compound 175-1), 4-(2-((2′-chloro-3′-(1,5-dimethyl-4,5,6,7-tetrahydro-1H-imidazo[4,5-c]pyridine-2-carboxamido)-2-methyl-[1,1′-biphenyl]-3-yl)carbamoyl)-1-methyl-1,4,6,7-tetrahydro-5H-imidazo[4,5-c]pyridin-5-yl)adamantane-1-carboxylic acid] |
| ≤ 10 | CN1CCc2c(nc(C(=O)Nc3cccc(-c4cccc(NC(=O)c5nc6c(n5C)CCN(CCC5CCC(C(=O)O)CC5)C6)c4Cl)c3Cl)n2C)C1 (stereo not shown) [Compound 77-1, 4-(2-(2-((2,2′-dichloro-3′-(1,5-dimethyl-4,5,6,7-tetrahydro-1H-imidazo[4,5-c]pyridine-2-carboxamido)-[1,1′-biphenyl]-3-yl)carbamoyl)-1-methyl-1,4,6,7-tetrahydro-5H-imidazo[4,5-c]pyridin-5-yl)ethyl)cyclohexane-1-carboxylic acid] |
| ≤ 10 | Cc1c(NC(=O)c2nc3c(n2C)CCN(C2CCCCC2)C3)cccc1-c1cccc(NC(=O)c2nc3c(n2C)CCN(C2CCC(C)(C(=O)O)CC2)C3)c1Cl (stereo not shown) [Compound 139, 4-(2-((2-chloro-3-(5-cyclohexyl-1-methyl-4,5,6,7-tetrahydro-1H-imidazo[4,5-c]pyridine-2-carboxamido)-2′-methyl-[1,1′-biphenyl]-3-yl)carbamoyl)-1-methyl-1,4,6,7-tetrahydro-5H-imidazo[4,5-c]pyridin-5-yl)-1-methylcyclohexane-1-carboxylic acid] |
| ≤ 10 | Cc1c(NC(=O)c2nc3c(n2C)CCN(C2CCC(O)CC2)C3)cccc1-c1cccc(NC(=O)c2nc3c(n2C)CCN(C2CCC(C)(C(=O)O)CC2)C3)c1Cl (stereo not shown) [Compound 140, 4-(2-((2-chloro-3′-(5-(4-hydroxycyclohexyl)-1-methyl-4,5,6,7-tetrahydro-1H-imidazo[4,5-c]pyridine-2-carboxamido)-2′-methyl-[1,1′-biphenyl]-3-yl)carbamoyl)-1-methyl-1,4,6,7-tetrahydro-5H-imidazo[4,5-c]pyridin-5-yl)-1-methylcyclohexane-1-carboxylic acid] |
| ≤ 10 | CN1CCc2c(nc(C(=O)Nc3cccc(-c4cccc(NC(=O)c5nc6c(n5C)CCN(C[C@H]5CC[C@H](C(=O)O)CC5)C6)c4C#N)c3Cl)n2C)C1 [Compound 147, trans-4-((2-((2′-chloro-2-cyano-3′-(1,5-dimethyl-4,5,6,7-tetrahydro-1H-imidazo[4,5-c]pyridine-2-carboxamido)-[1,1′-biphenyl]-3-yl)carbamoyl)-1-methyl-1,4,6,7-tetrahydro-5H-imidazo[4,5-c]pyridin-5-yl)methyl)cyclohexane-1-carboxylic acid] |
